US12421499B2, “Method of differentiation of human pluripotent stem cells to monohormonal cells” (Cornell University, priority 2018, dated 2025)
pIC50: −log10 of the molar value.

Tests used:
GLIS3−/− PP2-β cells [1] = assay: Cell apoptosis rate (cleaved caspase-3+ INS+ cells in INS+ cells) and INS+ cell number, high content imaging; assay type: cell-based, human; settings: for cell apoptosis rate: INS-GFP+ GLIS3−/− PP2-β cells
Protocol: Immunofluorescence staining. Cells were fixed in 4% paraformaldehyde solution (Affymetrix) for 20 min, then blocked and permeabilized in PBS solution containing 5% horse serum and 0.3% Triton for 1 hr at room temperature. The cells were incubated with primary antibodies overnight at 4 C followed by 1 hr incubation with fluorescence-conjugated secondary antibodies (Alexafluor, ThermoFisher Scientific) at RT. For pSMAD2/3 staining, cells were permeabilized with ice-cold methanol at ˜20 C for 10 min after fixation and prior to blocking. The following primary antibodies were used: anti-OCT4 (1:200, Santa Cruz), anti-SOX17 (1:500, R&D), anti-PDX1 (1:500, R&D), anti-SOX9 (1:1000, Millipore), anti-NKX6.1 (1:500, DSHB), anti-NKX2.2 (1:500, DSHB), anti-PAX6 (1:1000, Covance), anti-ISL1 (1:200, DSHB), anti-UCN3 (1:500, Phoenix Pharmaceuticals), anti-NGN3 (1:500, R&D), anti-chromogranin A (1:1000, Immunostar), anti-glucagon (1:2000, Sigma) anti-somatostatin (1:1000, DAKO), anti-ghrelin (1:500, Santa Cruz), anti-insulin (1:500, DAKO) and anti-cleaved caspase-3 (1:1000, BD Biosciences), anti-pSMAD2/3 (1:200, Cell Signaling).
High throughput chemical screening. To perform the high throughput small molecule screening, GLIS3^−/− cells at D26_L were dissociated using Accutase and replated onto 804G-coated 384-well plates at 20,000 cells/80 μl medium/well. After 8 hr, cells were treated at 1 μM and 10 μM with compounds from an in-house library of 300 signaling pathway modulators, an epigenetics library (Cayman Chemical), Prestwick library of approved drugs (FDA, EMA and other agencies), LOPAC (Sigma Aldrich) and the MicroSource library totaling 5000 chemicals. DMSO treatment was used as a negative control. Untreated wells containing WT cells were included as positive control. After 4 days of culture, cells were first stained with 2.5 μg/mL PI and then fixed and stained using antibodies against Insulin (DAKO) and cleaved caspase-3 (BD biosciences). Plates were analyzed using a Molecular Devices ImageXpress High-Content Analysis System. Two-dimensional analysis was used. Compounds inducing lower % cleaved caspase-3 (Z-score<−1.5) and a similar or higher number of INS^+ cells compared to DMSO treated wells were selected as primary hits.

GLIS3−/− PP2-β cells [2] = assay: Cell death rate (PI+ INS+ cells in INS+ cells), propidium iodide staining; assay type: cell-based, human; settings: for cell death rate: INS-GFP+ GLIS3−/− PP2-β cells
Protocol: Propium iodide cell viability staining. Cells at D30_L were dissociated using Accutase and replated onto 96-well plates coated with 804-G conditioned medium. Once attached, cells were stained by 2.5 μg mL^−1 propium iodide in DMEM for 12 min, washed once with DMEM and fixed with 4% paraformaldehyde for 20 min. DAPI was used to quantify total number of cells after fixation. Plates were analyzed using a Molecular Devices ImageXpress High-Content Analysis System. Data was quantified using MetaXpress software.

WT INS-GFP+ PP2-β cells = assay: Annexin V apoptosis analysis in wild-type cells; assay type: cell-based, human; settings: 10 μM
Protocol: Annexin V cellular apoptosis analysis. hESC derived cells were dissociated by Accutase and washed with cold PBS, stained with the PE/Annexin V apoptosis detection Kit (BD Bioscience, 559763) or A647-conjugated annexin V (Thermo Fisher Scientific) according to manufacturer's instructions, the samples were the analyzed by flow cytometry (BD Bioscience, FASC ARIA2) within 30 min. To include a positive control for apoptosis, cells were incubated with 10 μM Camptothecin (Sigma Aldrich) or DMSO for 4 hours prior to Annexin V staining.

[3] = test system: GLIS3−/− PP2 cells transplanted under the kidney capsule; assay: In vivo transplantation and drug treatment, graft apoptosis by immunohistochemistry; parameters: species or system SCID-beige mice; settings: 15 mg/kg/day intraperitoneal for seven days, vs vehicle
Protocol: In vivo transplantation and drug treatment. WT and isogenic mutant hESCs at day 24 of differentiation (around 1 million cells) were harvested by cell scraper, mixed with 20 μl Matrigel (Corning) and transplanted under the kidney capsule of 6-8 weeks old male SCID-beige mice. For drug treatment, mice were injected intraperitoneally with 15 mg/kg/day galunisertib or vehicle for seven days. To prepare the injection cocktail, 200 mM galunisertib in DMSO was diluted ˜15 times with a 50:50 mixture of PEG300 (Sigma Aldrich) and saline (APP Pharmaceuticals). All animal work was conducted in agreement with NIH guidelines and approved by the local Institutional Animal Care and Use Committee (IACUC), the Institutional Biosafety Committee (IBC) as well as the Embryonic Stem Cell Research Committee (ESCRO).
Immunohistochemistry. Mouse kidneys with cells grafted under the capsules were washed with PBS, fixed with 4% paraformaldehyde at 4C overnight and transferred to 30% sucrose solution for dehydration. […] The slides were blocked and permeabilized in PBS solution containing 5% horse serum and 0.3% Triton for 1 hr at RT and then incubated with primary antibodies overnight at 4C followed by 1 hr incubation with fluorescence-conjugated secondary antibodies (Alexafluor, ThermoFisher Scientific) at RT. […] Fluorescent images were scored using MetaMorph® image analysis software (Molecular Devices).

SMAD2/3 phosphorylation = assay: Western blot of SMAD2/3 phosphorylation; assay type: cell-based, human; settings: 10 μM; GLIS3−/− cells at D30_L; vs DMSO
Protocol: Western blot analysis. Whole-cell lysates were generated by scraping cultures on day 24 of differentiation in cold PBS, and re-suspending in complete lysis buffer (20 mM Tris pH 7.0, 150 mM NaCl, 50 mM NaF, 1% NP-40 substitute, and Thermo Scientific HALT protease inhibitor cocktail 1:100). Lysates were loaded onto 10% NuPage Bis-Tris gels (Invitrogen), resolved by electrophoresis, and transferred to PVDF membranes (Bio-Rad). Membranes were blocked with 5% bovine serum albumin in TBS+ 0.05% Tween and probed overnight with primary antibody. The antibodies were rabbit anti-phospho-SMAD2/3 (1:250, Cell Signaling), rabbit anti-SMAD2/3 XP (1:5000, Cell Signaling), and mouse anti-β-actin (1:50000, Sigma A1978). Membranes were washed and incubated for 1 hr with HRP-conjugated secondary antibody (Bio-Rad) in 5% milk-TBS-0.05% Tween and developed using SuperSignal West Pico (Thermo Scientific) or Immobilon (Millipore) ECL substrate.

[4] = 10 μM, GLIS3−/− cells at D30_L, vs DMSO

With `Cc1cccc(-c2nn(C(=S)Nc3ccccc3)cc2-c2ccnc3ccccc23)n1` [A83-01] the cell apoptosis rate (GLIS3−/− PP2-β cells [1]; 10 μM) was “significantly decrease” and the cell death rate (GLIS3−/− PP2-β cells [2]; 10 μM) was “significantly decrease”.

With `c1ccc(-c2[nH]ncc2-c2ccnc3ccccc23)nc1` [LY-364947] the cell apoptosis rate (GLIS3−/− PP2-β cells [1]; 10 μM) was “significantly decrease” and the cell death rate (GLIS3−/− PP2-β cells [2]; 10 μM) was “significantly decrease”.

`NC(=O)c1ccc(-c2nc(-c3ccccn3)c(-c3ccc4c(c3)OCO4)[nH]2)cc1` [SB431642] was tested, and the cell apoptosis rate (GLIS3−/− PP2-β cells [1]; 1 μM) was “significantly decrease” and the cell death rate (GLIS3−/− PP2-β cells [2]; 1 μM) was “significantly decrease”.

`Cc1cccc(-c2[nH]c(C(C)(C)C)nc2-c2ccc3nccnc3c2)n1` [SB525334] was tested, and the cell apoptosis rate (GLIS3−/− PP2-β cells [1]; 1 μM) was “significantly decrease” and the cell death rate (GLIS3−/− PP2-β cells [2]; 1 μM) was “significantly decrease”.

In the case of `Cc1cccc(-c2nn3c(c2-c2ccnc4ccc(C(N)=O)cc24)CCC3)n1` [galunisertib], the “number of INS+ cells” value (GLIS3−/− PP2-β cells [1]; 10 μM, GLIS3−/− PP2-β cells, normalized to DMSO) was “increases”, the cell apoptosis (GLIS3−/− PP2-β cells [1]; [4]) was “significantly reduces” and the pIC50 (GLIS3−/− PP2-β cells [1]; Homo sapiens, dose-dependent, inhibitory curve FIG. 4c, read-out: IC50, rescue of loss of GLIS3-induced pancreatic β-cell apoptosis) was 5.94. The cell death (GLIS3−/− PP2-β cells [2]; [4]) was “significantly reduces”, the “cell apoptosis of WT INS+ cells” value (WT INS-GFP+ PP2-β cells) was “does not affect” and the “cell apoptosis rate in the transplanted cells (cleaved caspase-3+/STEM121+ cells in STEM121+ cells)” value ([3]; cells pre-treated with 10 μM for 16 hr) was “significantly decreases”. The “cell apoptosis rate in INS+ and PDX1+ cells in the grafts” value [3] was “significantly decreases” and the “increased SMAD2/3 phosphorylation” value (SMAD2/3 phosphorylation) was “inhibits”.
